Results published in US8962001B2, “Nuclease inhibitors and methods for their use” (Wisconsin Alumni Research Foundation, priority 2004, dated 2015).

Key:
ribonuclease A = molecular target: T1, ribonuclease A (Bos taurus, UniProt P61823); test: Inhibition of RNase A catalysis, fluorescence assay with 6-FAM~dArUdAdA~6-TAMRA; type: biochemical; settings: solutions of low salt concentration
T1 construct: made in house
T1 sequence (P61823 27-150): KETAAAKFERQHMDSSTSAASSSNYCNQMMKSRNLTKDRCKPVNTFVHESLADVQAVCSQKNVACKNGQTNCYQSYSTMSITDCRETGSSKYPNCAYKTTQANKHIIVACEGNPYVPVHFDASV
Experimental: Inhibition of RNase A Catalysis—Inhibition of ribonucleolytic activity was measured by using either poly(C) or a fluorogenic substrate. The total cytidyl concentration of poly(C) was quantitated using ε=6,200 M^−1 cm^−1 at 268 nm (Yakovlev et al., 1992). The cleavage of poly(C) was monitored by the decrease in ultraviolet hypochromicity. The Δε value for this reaction calculated from the difference in molar absorptivity of the polymeric substrate and the mononucleotide cyclic phosphate product was 2,380 M^−1 cm^−1 at 250 nm (delCardayre and Raines, 1994). Assays were performed at 25° C. in 50 mM imidazole-HCl buffer, pH 6.0, containing NaCl (0.10 M), poly(C) (10 μM-1.5 mM), OVS (0-1.43 μM), and enzyme (1.0 nM).
Molar values of OVS were calculated by using the number average molecular mass (Mn) of 2,000 g/mol (value provided by the manufacturer and said to be measured by GPC, Polysciences.) It is possible that an oligomer of this size could bind two enzymes. Thus, the actual Ki values could be 2-fold higher. Kinetic parameters were determined from initial velocity data with the program DELTA-GRAPH 4.0 (DeltaPoint, Monterey, Calif.). For the fluorescence assay, the inhibition of ribonucleolytic activity was assessed at 25° C. in 2.0 ml of 50 mM imidazole-HCl buffer, pH 6.0, containing NaCl (0-0.25 M), 6-FAM˜dArUdAdA˜6-TAMRA (60 nM), and RNase A ([…]) as described previously (Kelemen et al., 1999; Park et al., 2001). Fluorescence (F) was measured using 493 and 515 nm as the excitation and emission wavelengths, respectively. The value of ΔF/Δt was measured for 3 min after the addition of RNase A. An aliquot of inhibitor (I) dissolved in the dissolved in the assay buffer was added next, and ΔF/Δt was measured in the presence of the inhibitor for 3 min. The concentration of inhibitor in the assay was doubled repeatedly in 3-min intervals. Excess RNase A was then added to the mixture to ensure that […] substrate had been cleaved prior to completion of the inhibition assay. Apparent changes in ribonucleolytic activity due to dilution were corrected by comparing values to an assay in which aliquots of buffer were added to the assay. Values of Ki were determined by non-linear least squares regression analysis of data fitted to Equation 1 (Kelemen et al., 1999; Park et al., 2001). ΔF/Δt=(ΔF/Δt)0(Ki/(Ki+[I])) (Eq. 1)
At 0 M NaCl, the enzyme concentration ([E] total) caused a significant depletion in inhibitor concentration, thus the data were fitted to Equation 2, which describes tight-binding inhibition (Henderson, 1972). ΔF/Δt=((ΔF/Δt)0/2[E]total){[(Ki+[I]−[E]total]^2+4Ki[E]total)^1/2−(Ki+[I]−[E]total)} (Eq. 2) In Equations 1 and 2, ( )F/ )t)0 was the ribonucleolytic activity prior to inhibitor addition.

RNase A = molecular target: T2, RNase A (Bos taurus, UniProt P61823); settings: similar buffer conditions with 0.10 M NaCl; cited from earlier work
T2 sequence (P61823 27-150): T1 sequence (P61823 27-150)

Compound | inhibition of RNase A by buffer synthesis byproducts (words) (ribonuclease A) | inhibition of RNase A by buffer synthesis byproducts (words) (ribonuclease A; listed as 2-OH ethanesulfonic acid) | inhibition of RNase A by buffer synthesis byproducts (words) (ribonuclease A; listed as diethanesulfonic acid) | Ki (RNase A) | inhibition of RNase A by buffer synthesis byproducts (words) (ribonuclease A; listed as vinyl sulfonic acid)
O=S(=O)(O)CCO [2-hydroxyethanesulfonic acid] | Neither of these species was found to be a potent inhibitor | None of these three materials was found, when tested, to exhibit inhibitory activity |  |  | 
O=S(=O)(O)CCOCCS(=O)(=O)O [Diethanesulfonic acid ether, diethanesulfonic acid ether] | failed to inhibit RNase A |  | None of these three materials was found, when tested, to exhibit inhibitory activity |  | 
Nc1ncnc2c1ncn2[C@@H]1O[C@H](COP(=O)(O)OP(=O)(O)O[C@H]2C[C@H](n3ccc(=O)[nH]c3=O)O[C@@H]2COP(=O)(O)O)[C@@H](OP(=O)(O)O)[C@H]1O [pdUppA-3′-p] |  |  |  | ~120 nM | 
C=CS(=O)(=O)O [vinylsulfonic acid] | Neither of these species was found to be a potent inhibitor |  |  |  | None of these three materials was found, when tested, to exhibit inhibitory activity
